Molecules are shown by their SMILES. Calls of active or inactive are those of the source. No cut-off for these calls is given here.

The target in test [1] is Cyclin-dependent kinase 4/cyclin D1 (Homo sapiens, UniProt P11802). Nature of the test: Inhibition of human CDK4/cyclin-D1 using RB protein as substrate by [gamma-33P]-ATP assay. Format: protein-complex assay.
In another test the target is CDK6/cyclin D3 (Homo sapiens, UniProt Q00534). Nature of the test: Inhibition of human CDK6/cyclin-D3 using RB protein as substrate by [gamma-33P]-ATP assay. It counts as protein-complex assay.
Test [2] deals with T1, Baculoviral IAP repeat-containing protein 2/Cyclin-dependent kinase 4 (Homo sapiens, UniProt P11802+Q13490). The experiment in a line: Protac activity at CDK4/BIRC2 in human Jurkat cells assessed as induction of CDK4 degradation measured after 24 hrs by capillary electrophoresis. It counts as cell-based.
Target sequence in this assay (P11802 whole entry): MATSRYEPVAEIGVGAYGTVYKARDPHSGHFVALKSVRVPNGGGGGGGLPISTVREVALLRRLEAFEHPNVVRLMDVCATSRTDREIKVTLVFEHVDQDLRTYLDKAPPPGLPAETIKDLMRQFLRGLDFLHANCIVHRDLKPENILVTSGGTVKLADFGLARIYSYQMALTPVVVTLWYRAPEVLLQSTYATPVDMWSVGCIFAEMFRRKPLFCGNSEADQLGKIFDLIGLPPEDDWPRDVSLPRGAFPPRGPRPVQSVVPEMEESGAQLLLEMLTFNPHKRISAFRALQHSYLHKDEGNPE
Target sequence in this assay (Q13490 whole entry): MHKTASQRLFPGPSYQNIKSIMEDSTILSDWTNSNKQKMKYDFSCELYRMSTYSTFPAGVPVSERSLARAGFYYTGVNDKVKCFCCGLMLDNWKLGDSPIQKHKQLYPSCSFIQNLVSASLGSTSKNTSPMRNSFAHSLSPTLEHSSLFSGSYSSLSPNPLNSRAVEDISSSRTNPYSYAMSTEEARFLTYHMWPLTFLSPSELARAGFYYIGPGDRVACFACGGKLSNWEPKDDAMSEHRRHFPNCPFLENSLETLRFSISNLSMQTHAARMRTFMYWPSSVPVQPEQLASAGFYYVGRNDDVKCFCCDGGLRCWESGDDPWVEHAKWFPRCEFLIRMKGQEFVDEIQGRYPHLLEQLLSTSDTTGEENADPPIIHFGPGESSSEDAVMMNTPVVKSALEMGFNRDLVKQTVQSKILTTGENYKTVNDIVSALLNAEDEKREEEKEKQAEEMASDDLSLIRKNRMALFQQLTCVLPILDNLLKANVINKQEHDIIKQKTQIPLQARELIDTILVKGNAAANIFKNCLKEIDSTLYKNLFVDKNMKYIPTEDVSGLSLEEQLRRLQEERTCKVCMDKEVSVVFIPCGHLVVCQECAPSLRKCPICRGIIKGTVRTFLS
Test [3] has as its target Baculoviral IAP repeat-containing protein 2/Cyclin-dependent kinase 6 (Homo sapiens, UniProt Q00534+Q13490). Nature of the test: Protac activity at CDK6/BIRC2 in human Jurkat cells assessed as induction of CDK6 degradation measured after 24 hrs by capillary electrophoresis. Format: cell-based.
In test [4] the target is T2, von Hippel-Lindau disease tumor suppressor/Cyclin-dependent kinase 4 (Homo sapiens, UniProt P11802+P40337). The experiment in a line: Protac activity at CDK4/VHL in human Jurkat cells assessed as induction of CDK4 degradation measured after 24 hrs by capillary electrophoresis. It counts as cell-based.
Target sequence in this assay (P11802 whole entry): as the sequence (P11802 whole entry) above
Target sequence in this assay (P40337 whole entry): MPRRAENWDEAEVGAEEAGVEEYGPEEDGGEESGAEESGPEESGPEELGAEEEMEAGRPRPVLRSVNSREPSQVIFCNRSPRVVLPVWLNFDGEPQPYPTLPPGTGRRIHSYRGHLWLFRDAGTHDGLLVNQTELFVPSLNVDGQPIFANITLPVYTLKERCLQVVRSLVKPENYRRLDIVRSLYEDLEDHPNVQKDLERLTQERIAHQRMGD
Test [5] addresses von Hippel-Lindau disease tumor suppressor/Cyclin-dependent kinase 6 (Homo sapiens, UniProt Q00534+P40337). Nature of the test: Protac activity at CDK6/VHL in human Jurkat cells assessed as induction of CDK6 degradation measured after 24 hrs by capillary electrophoresis. Format: cell-based.
Test [6] concerns the target T2, von Hippel-Lindau disease tumor suppressor/Cyclin-dependent kinase 4. Nature of the test: Protac activity at CDK4/VHL in human epoxomicin pretreated Jurkat cells assessed as decrease in CDK4 protein level measured after 5 hrs. It counts as cell-based.
Target sequence in this assay (P11802 2-303 limits assumed): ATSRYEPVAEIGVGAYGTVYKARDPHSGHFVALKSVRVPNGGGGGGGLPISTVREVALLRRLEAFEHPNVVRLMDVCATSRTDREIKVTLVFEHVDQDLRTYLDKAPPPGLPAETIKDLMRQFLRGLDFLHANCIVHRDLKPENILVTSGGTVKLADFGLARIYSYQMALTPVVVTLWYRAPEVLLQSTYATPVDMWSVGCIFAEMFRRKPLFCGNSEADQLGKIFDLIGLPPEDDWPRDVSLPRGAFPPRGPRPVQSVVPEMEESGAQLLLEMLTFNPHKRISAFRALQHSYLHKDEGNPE
Target sequence in this assay (P40337 whole entry partner): as the sequence (P40337 whole entry) above
In test [7] the test system is von Hippel-Lindau disease tumor suppressor/Cyclin-dependent kinase 4 (Homo sapiens). Nature of the test: Protac activity at CDK4/VHL in human epoxomicin pretreated Jurkat cells assessed as decrease in CDK4 protein level measured after 5 hrs.
The target in test [8] is T1, Baculoviral IAP repeat-containing protein 2/Cyclin-dependent kinase 4. The experiment in a line: Protac activity at CDK4/BIRC2 in human epoxomicin pretreated Jurkat cells assessed as decrease in CDK4 protein level measured after 5 hrs. It counts as cell-based.
Target sequence in this assay (P11802 2-303 limits assumed): as the sequence (P11802 2-303 limits assumed) above
Target sequence in this assay (Q13490 whole entry partner): as the sequence (Q13490 whole entry) above
The test system of test [9] is Baculoviral IAP repeat-containing protein 2/Cyclin-dependent kinase 6 (Homo sapiens). Nature of the test: Protac activity at CDK6/BIRC2 in human epoxomicin pretreated Jurkat cells assessed as decrease in CDK6 protein level measured after 5 hrs.
The target of test [10] is Protein cereblon/Cyclin-dependent kinase 4 (Homo sapiens, UniProt P11802+Q96SW2). Nature of the test: Protac activity at CRBN/CDK4 in human Jurkat cells assessed as induction of CDK4 degradation measured after 24 hrs by capillary electrophoresis. It counts as cell-based.
For test [11], the target named is Protein cereblon/Cyclin-dependent kinase 6 (Homo sapiens, UniProt Q00534+Q96SW2). The experiment in a line: Protac activity at CRBN/CDK6 in human Jurkat cells assessed as induction of CDK6 degradation measured after 24 hrs by capillary electrophoresis. It counts as cell-based.
Sequence of Protein cereblon/Cyclin-dependent kinase 6 (Q00534 whole entry): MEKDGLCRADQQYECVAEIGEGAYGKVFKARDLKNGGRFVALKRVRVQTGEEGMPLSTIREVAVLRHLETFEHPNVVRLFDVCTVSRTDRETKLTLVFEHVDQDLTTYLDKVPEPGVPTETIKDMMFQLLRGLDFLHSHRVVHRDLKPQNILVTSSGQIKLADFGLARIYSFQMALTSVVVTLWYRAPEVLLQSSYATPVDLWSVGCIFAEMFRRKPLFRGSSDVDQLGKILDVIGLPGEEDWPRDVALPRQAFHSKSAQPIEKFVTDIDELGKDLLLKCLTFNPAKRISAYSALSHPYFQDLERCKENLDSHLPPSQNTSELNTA
Sequence of Protein cereblon/Cyclin-dependent kinase 6 (Q96SW2 whole entry): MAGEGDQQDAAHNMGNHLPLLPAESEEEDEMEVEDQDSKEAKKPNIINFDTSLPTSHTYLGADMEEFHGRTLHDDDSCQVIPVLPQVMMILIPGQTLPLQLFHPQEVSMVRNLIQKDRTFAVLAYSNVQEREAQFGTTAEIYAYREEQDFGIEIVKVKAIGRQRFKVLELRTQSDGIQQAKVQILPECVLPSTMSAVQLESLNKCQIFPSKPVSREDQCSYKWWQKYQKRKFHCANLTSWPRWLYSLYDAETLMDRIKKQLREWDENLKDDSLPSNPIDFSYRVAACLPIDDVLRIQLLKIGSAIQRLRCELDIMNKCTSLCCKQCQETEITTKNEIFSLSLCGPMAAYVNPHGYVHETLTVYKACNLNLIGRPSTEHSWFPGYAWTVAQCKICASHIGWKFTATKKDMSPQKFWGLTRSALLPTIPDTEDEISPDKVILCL

Sequence of Cyclin-dependent kinase 4/cyclin D1 (P11802 whole entry): as the sequence (P11802 whole entry) above
Sequence of Cyclin-dependent kinase 4/cyclin D1 (P24385 whole entry, further chain): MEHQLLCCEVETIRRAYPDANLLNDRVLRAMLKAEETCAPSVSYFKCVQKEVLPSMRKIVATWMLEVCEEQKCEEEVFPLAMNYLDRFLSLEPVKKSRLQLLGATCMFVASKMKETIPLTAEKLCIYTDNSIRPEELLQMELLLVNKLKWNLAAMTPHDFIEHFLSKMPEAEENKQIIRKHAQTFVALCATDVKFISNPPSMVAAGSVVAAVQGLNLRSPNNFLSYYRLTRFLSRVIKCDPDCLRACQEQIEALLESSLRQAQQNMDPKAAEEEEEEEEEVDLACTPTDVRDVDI
Sequence of Baculoviral IAP repeat-containing protein 2/Cyclin-dependent kinase 6 (Q00534 whole entry): as the sequence (Q00534 whole entry) above
Sequence of Baculoviral IAP repeat-containing protein 2/Cyclin-dependent kinase 6 (Q13490 whole entry): as the sequence (Q13490 whole entry) above
Sequence of CDK6/cyclin D3 (P30281 whole entry): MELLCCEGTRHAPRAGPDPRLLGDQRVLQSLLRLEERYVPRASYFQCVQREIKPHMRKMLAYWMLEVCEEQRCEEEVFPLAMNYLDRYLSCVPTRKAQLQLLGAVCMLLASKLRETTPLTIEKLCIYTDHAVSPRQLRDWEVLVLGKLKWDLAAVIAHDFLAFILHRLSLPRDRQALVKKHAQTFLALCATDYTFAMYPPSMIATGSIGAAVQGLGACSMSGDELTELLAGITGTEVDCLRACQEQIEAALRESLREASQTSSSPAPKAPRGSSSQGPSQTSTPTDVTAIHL
Sequence of CDK6/cyclin D3 (Q00534 whole entry): as the sequence (Q00534 whole entry) above
Sequence of von Hippel-Lindau disease tumor suppressor/Cyclin-dependent kinase 6 (Q00534 whole entry): as above
Sequence of von Hippel-Lindau disease tumor suppressor/Cyclin-dependent kinase 6 (P40337 whole entry): as the sequence (P40337 whole entry) above
Sequence of Protein cereblon/Cyclin-dependent kinase 4 (P11802 whole entry): as the sequence (P11802 whole entry) above
Sequence of Protein cereblon/Cyclin-dependent kinase 4 (Q96SW2 whole entry): as the sequence (Q96SW2 whole entry) above

On to `CC(=O)c1c(C)c2cnc(Nc3ccc(N4CCN(CCCCNC(=O)CNc5cccc6c5C(=O)N(C5CCC(=O)NC5=O)C6=O)CC4)cn3)nc2n(C2CCCC2)c1=O` (stereo unspecified), for which, in [1], the IC50 was 0.00316 µM.
`CN[C@@H](C)C(=O)N[C@H](C(=O)N1C[C@@H](NC(=O)CCOCCOCCOCCNC(=O)CN2CCN(c3ccc(Nc4ncc5c(C)c(C(C)=O)c(=O)n(C6CCCC6)c5n4)nc3)CC2)C[C@H]1C(=O)Nc1c(F)cccc1F)C(C)(C)C`: the values for the IC50 (in [1]; on CDK6/cyclin D3 (read-out: pIC50 (converted))) were 0.0158 µM and 0.0398 µM, respectively. Moreover, the pDC50 is recorded as 5.3 in [2] and 5.8 in test [3].
For the compound `CC(=O)c1c(C)c2cnc(Nc3ccc(N4CCN(CCCCCCCC(=O)N[C@H](C(=O)N5C[C@H](O)C[C@H]5C(=O)N[C@@H](C)c5ccc(-c6scnc6C)cc5)C(C)(C)C)CC4)cn3)nc2n(C2CCCC2)c1=O`, the figures for the IC50 (in test [1]; at CDK6/cyclin D3 (read-out: IC50)) were 0.0316 µM and 0.2 µM, respectively. In addition, the pDC50 in [4] is reported as 7.6; in test [5], 8.4. Further, the DC50 (in general, the midpoint of the concentration-degradation curve) in test [5] was 0.004 µM. In addition, the result in test [6] and in [7] was inactive.
Regarding `CN[C@@H](C)C(=O)N[C@H](C(=O)N1C[C@@H](NC(=O)CCCCCCCN2CCN(c3ccc(Nc4ncc5c(C)c(C(C)=O)c(=O)n(C6CCCC6)c5n4)nc3)CC2)C[C@H]1C(=O)Nc1c(F)cccc1F)C(C)(C)C`, the IC50 in test [1] was 0.00501 µM; at CDK6/cyclin D3 (read-out: pIC50 (converted)) it was 0.0126 µM. Moreover, the pDC50 in test [2] is 7.7; in [3] it was 8.3. Further, the result in [8] and in test [9] was inactive.
With `CN[C@@H](C)C(=O)N[C@H](C(=O)N1C[C@@H](NC(=O)COCCOCCOCCN2CCN(c3ccc(Nc4ncc5c(C)c(C(C)=O)c(=O)n(C6CCCC6)c5n4)nc3)CC2)C[C@H]1C(=O)Nc1c(F)cccc1F)C(C)(C)C`, the IC50 in test [1] was 0.00631 µM; at CDK6/cyclin D3 (read-out: pIC50 (converted)) it was 0.0158 µM. The values for the pDC50 in test [2] and in test [3] were 7.1 and 7.8, respectively.
On to `CC(=O)c1c(C)c2cnc(Nc3ccc(N4CCN(CCOCCOCCNC(=O)CNc5cccc6c5C(=O)N(C5CCC(=O)NC5=O)C6=O)CC4)cn3)nc2n(C2CCCC2)c1=O` (stereo unspecified), for which the figures for the IC50 (in test [1]; at CDK6/cyclin D3 (read-out: pIC50 (converted))) were 0.00631 µM and 0.0158 µM, respectively. For the same compound, the pDC50 came out at 7.3 in test [10] and 8.3 in test [11].

The values are drawn from ChEMBL document CHEMBL4627338, “Selective CDK6 degradation mediated by cereblon, VHL, and novel IAP-recruiting PROTACs” (Bioorg Med Chem Lett, 2020).
